The supplement of paper PMC10307832

Legend:
Assay in all cases: relative viability (nuclei count vs DMSO), 5 days (fraction); higher = more cells survive
BAY61-3606 + Crizotinib = compound: COC1=C(C=C(C=C1)C2=CC3=NC=CN3C(=N2)NC4=C(C=CC=N4)C(=O)N)OC [BAY61-3606] + C[C@@H](Oc1cc(-c2cnn(C3CCNCC3)c2)cnc1N)c1c(Cl)ccc(F)c1Cl [Crizotinib] (partner 1 µM)
Method in brief: (§1)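 Lung cancer cell lines were pin-tool dosed in 1536-well plates on the day after seeding, with either a lone drug or a fixed anchor-drug dose plus five library-drug doses (not always all listed) in √10 steps. Nuclei were counted on 4× images after 5 days. Relative viability is the ratio of treated-well to vehicle-well nuclei counts, with each value a median of duplicate plates.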

BAY61-3606 + Decitabine = compound: COC1=C(C=C(C=C1)C2=CC3=NC=CN3C(=N2)NC4=C(C=CC=N4)C(=O)N)OC [BAY61-3606] + Nc1ncn([C@H]2C[C@H](O)[C@@H](CO)O2)c(=O)n1 [Decitabine] (partner 2 µM)
Method in brief: as §1

Doxorubicin + Tozasertib = compound: COc1cccc2c1C(=O)c1c(O)c3c(c(O)c1C2=O)C[C@@](O)(C(=O)CO)C[C@@H]3O[C@H]1C[C@H](N)[C@H](O)[C@H](C)O1 [Doxorubicin] + Cc1cc(Nc2cc(N3CCN(C)CC3)nc(Sc3ccc(NC(=O)C4CC4)cc3)n2)n[nH]1 [Tozasertib] (partner 0.1 µM)
Method in brief: as §1

Doxorubicin + Vorinostat = compound: COc1cccc2c1C(=O)c1c(O)c3c(c(O)c1C2=O)C[C@@](O)(C(=O)CO)C[C@@H]3O[C@H]1C[C@H](N)[C@H](O)[C@H](C)O1 [Doxorubicin] + O=C(CCCCCCC(=O)Nc1ccccc1)NO [Vorinostat] (partner 1 µM)
Method in brief: as §1

Cell Line	relative viability (BAY61-3606 + Crizotinib; first compound 0.02 µM)	relative viability (BAY61-3606 + Crizotinib; first compound 0.06325 µM)	relative viability (BAY61-3606 + Crizotinib; first compound 0.2 µM)	relative viability (BAY61-3606 + Crizotinib; first compound 0.6325 µM)	relative viability (BAY61-3606 + Crizotinib; first compound 2 µM)	relative viability (BAY61-3606 + Decitabine; first compound 0.02 µM)	relative viability (BAY61-3606 + Decitabine; first compound 0.06325 µM)	relative viability (BAY61-3606 + Decitabine; first compound 0.2 µM)	relative viability (BAY61-3606 + Decitabine; first compound 0.6325 µM)	relative viability (BAY61-3606 + Decitabine; first compound 2 µM)	relative viability (Doxorubicin + Tozasertib; first compound 0.001 µM)	relative viability (Doxorubicin + Tozasertib; first compound 0.003162 µM)	relative viability (Doxorubicin + Tozasertib; first compound 0.01 µM)	relative viability (Doxorubicin + Tozasertib; first compound 0.03162 µM)	relative viability (Doxorubicin + Tozasertib; first compound 0.1 µM)	relative viability (Doxorubicin + Vorinostat; first compound 0.001 µM)	relative viability (Doxorubicin + Vorinostat; first compound 0.003162 µM)	relative viability (Doxorubicin + Vorinostat; first compound 0.01 µM)	relative viability (Doxorubicin + Vorinostat; first compound 0.03162 µM)	relative viability (Doxorubicin + Vorinostat; first compound 0.1 µM)
NCI-H1563	0.906	0.868	0.882	0.948	0.758	–	–	–	–	–	–	–	–	–	–	–	–	–	–	–
COR-L23	0.697	0.67	0.527	0.667	0.509	0.398	0.441	0.455	0.485	0.363	0.227	0.186	0.201	0.123	0.122	0.48	0.395	0.356	0.252	0.157
ABC-1	0.999	0.978	0.992	1.02	0.821	1.04	1.08	0.957	1.22	0.97	0.223	0.207	0.153	0.184	0.181	1.25	0.999	0.908	0.509	0.309
NCI-H522	–	–	–	–	–	0.68	0.635	0.732	0.742	0.517	0.581	0.577	0.512	0.488	0.609	0.869	0.93	0.716	0.786	0.878
SW 1573	0.802	0.65	0.745	0.785	0.588	0.526	0.553	0.467	0.511	0.325	0.185	0.144	0.148	0.103	0.0879	0.725	0.481	0.233	0.109	0.104
SW 900	–	–	–	–	–	0.452	–	–	0.396	0.442	0.543	0.491	0.596	0.456	0.231	–	0.452	0.394	0.346	0.26
A549	0.758	0.756	0.712	0.713	0.406	0.222	0.261	0.224	0.237	0.198	–	–	–	–	–	–	–	–	–	–
A-427	0.85	0.767	0.878	0.97	0.845	0.579	0.561	0.565	0.611	0.622	0.241	0.215	0.183	0.238	0.213	0.913	0.884	0.847	0.647	0.351
NCI-H1915	0.899	0.914	0.857	0.868	0.707	0.258	0.261	0.265	0.253	0.23	0.481	0.439	0.452	0.41	0.437	0.521	0.57	0.532	0.5	0.527
LOU-NH91	0.72	0.722	0.77	0.777	0.662	0.809	0.805	0.847	0.838	0.746	0.638	0.644	0.71	0.638	0.615	–	0.892	0.853	0.615	0.331
NCI-H1734	0.635	0.53	0.601	0.674	0.272	0.551	0.512	0.503	0.504	0.388	0.48	0.275	0.292	0.238	0.249	0.737	0.815	0.747	0.558	0.536
LCLC-97TM1	0.262	–	0.341	0.395	0.262	0.223	0.222	0.247	0.223	0.228	0.183	0.191	0.216	0.268	0.319	0.785	0.909	0.73	0.707	0.703
NCI-H1703	0.76	0.449	0.661	0.353	0.343	–	–	–	–	–	–	–	–	–	–	–	–	–	–	–
Calu-6	0.765	0.77	0.67	0.732	0.352	–	–	–	–	–	–	–	–	–	–	–	–	–	–	–
NCI-H1648	–	–	–	–	–	0.423	0.511	0.504	–	0.445	0.55	0.471	0.348	0.304	0.456	0.421	0.376	0.468	0.285	0.467
EBC-1	0.2	0.195	0.23	0.16	0.224	–	–	–	–	–	–	–	–	–	–	–	–	–	–	–
NCI-H2342	–	–	–	–	–	0.81	0.853	0.78	0.78	0.831	0.528	0.506	0.545	0.508	0.625	0.757	0.845	0.692	0.535	0.696
NCI-H1793	–	–	–	–	–	0.504	0.501	0.558	0.539	0.651	–	0.403	0.348	0.286	0.358	–	0.867	0.728	0.659	0.731
NCI-H1299	0.98	0.961	1.01	0.992	0.93	–	–	–	–	–	–	–	–	–	–	–	–	–	–	–
NCI-H2228	0.483	0.405	0.526	0.378	0.478	–	–	–	–	–	0.276	0.269	0.21	0.125	0.107	0.759	0.43	0.46	0.374	0.518
IA-LM	1.04	0.865	–	0.987	0.67	–	–	–	–	–	–	–	–	–	–	0.837	1.21	0.937	0.946	0.975
CAL-12T	0.619	0.537	0.493	0.364	0.205	–	–	–	–	–	0.339	0.283	0.257	0.207	0.136	0.928	0.808	0.488	0.228	0.153
NCI-H1792	0.944	1.03	0.777	0.947	1.08	0.605	0.572	0.547	0.617	0.493	–	–	–	–	–	–	–	–	–	–
